Data reported in US20250388605A1, “HETEROBIFUNCTIONAL COMPOUNDS AND METHODS OF TREATING DISEASE” (Halda Therapeutics OpCo, Inc., priority 2022, published 2025).

What was measured:
T47D cells = experiment: Cellular Growth Inhibition Assay for T47D Cells (CellTiter-Glo); format: cell-based, human; conditions: 72 hours
How it was run: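 GI50 values derive from four-parameter regression of CellTiter-Glo 2.0 luminescence, using zero luminescence as baseline. Human breast cancer T47D cells (3000/well; DMEM, 10% FBS, 0.2 units/mL insulin) were exposed for 72 h to compound dilutions at 0.5% DMSO, with dosing starting 24 h after seeding.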

[1] = system: T-Rex 293 cell line SC3 cells having increased expression of androgen receptor protein due to exposure to doxycycline; experiment: Cellular growth inhibition, T-Rex 293 SC3 cells with doxycycline (increased androgen receptor expression), CellTiter-Glo; format: cell-based; conditions: T-Rex 293 SC3 cells with 10 ng/mL doxycycline (increased androgen receptor expression), 72 hours, CellTiter-Glo 2.0
How it was run: (§1)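 Growth inhibition is measured in an inducible AR-expressing T-Rex 293 clone, SC3, cultured with or without 10 ng/mL doxycycline in hormone-depleted medium. Test compounds are applied for 72 hours. GI50 values derive from CellTiter-Glo 2.0 signal fitted by four-parameter regression.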

VCaP cells = experiment: Cellular growth inhibition assay for VCaP cells, CellTiter-Glo; format: cell-based, human; conditions: 72 hours
How it was run: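 GI50 values come from four-parameter curve fits of luminescence data normalized to a zero baseline. Compound, in medium with 0.5% DMSO, was added one day after plating and left for 72 h before CellTiter-Glo 2.0 addition.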

[2] = system: T-Rex 293 cell line SC3 cells lacking increased expression of androgen receptor protein; experiment: Cellular growth inhibition, T-Rex 293 SC3 cells without doxycycline (no increased androgen receptor expression), CellTiter-Glo; format: cell-based; conditions: T-Rex 293 SC3 cells not exposed to doxycycline (no increased androgen receptor expression), 72 hours
How it was run: as §1

GI50 (T47D cells) [nM] | GI50 (VCaP cells) [nM] | GI50 (T47D cells; Homo sapiens) [nM] | GI50 (VCaP cells; Homo sapiens) [nM] | SMILES | GI50 [1] [nM] | GI50 [2] [nM]
< 500 | < 500 |  |  | Cn1cc(-c2cc(C(C)(C)O)ccc2Oc2ccc(CCCC3CN(c4ncc(C(=O)N[C@H]5C(C)(C)[C@H](Oc6ccc(C#N)c(Cl)c6)C5(C)C)cn4)CCO3)cc2)c2cc[nH]c2c1=O (some centres unmarked) [Compound I-307] | < 500 | > 3000
< 500 | < 500 |  |  | Cn1cc(-c2cc(C(C)(C)O)ccc2Oc2ccc(C3CC(N4CCN(c5ncc(C(=O)N[C@H]6C(C)(C)[C@H](Oc7ccc(C#N)c(Cl)c7)C6(C)C)cn5)CC4)C3)cc2)c2cc[nH]c2c1=O (some centres unmarked) [Compound I-311] | < 500 | 500 to 1500
 |  | < 500 | < 500 | Cn1cc(-c2cc(C(C)(C)O)ccc2Oc2ccc(N3CC(CC4CN(C5CCC(C(=O)N[C@H]6C(C)(C)[C@H](Oc7ccc(C#N)c(Cl)c7)C6(C)C)CC5)C4)C3)cc2)c2cc[nH]c2c1=O (some centres unmarked) [Compound I-313] | 500 to 1500 | 500 to 1500
 |  | 500 to 1500 | < 500 | Cn1cc(-c2cc(C(C)(C)O)ccc2Oc2ccc(N3CC(CC4CN(c5ccc(C(=O)N[C@H]6C(C)(C)[C@H](Oc7ccc(C#N)c(Cl)c7)C6(C)C)cn5)C4)C3)cc2)c2cc[nH]c2c1=O [Compound I-316] | < 500 | < 500
 |  | < 500 | < 500 | Cn1cc(-c2cc(C(C)(C)O)ccc2Oc2ccc(N3CC(CC4CN(c5ccc(C(=O)N[C@H]6C(C)(C)[C@H](Oc7ccc(C#N)c(Cl)c7)C6(C)C)nn5)C4)C3)cc2)c2cc[nH]c2c1=O [Compound I-319] | < 500 | < 500
 |  | < 500 | < 500 | Cn1cc(-c2cc(C(C)(C)O)ccc2Oc2ccc(N3CC(CC4CN(c5cnc(C(=O)N[C@H]6C(C)(C)[C@H](Oc7ccc(C#N)c(Cl)c7)C6(C)C)nc5)C4)C3)cc2)c2cc[nH]c2c1=O [Compound I-323] | 500 to 1500 | 500 to 1500
< 500 | > 3000 |  |  | Cn1cc(-c2cc(C(C)(C)O)ccc2Oc2cccc(N3CCC(CC4CCN(c5ncc(C(=O)N[C@H]6C(C)(C)[C@H](Oc7ccc(C#N)c(Cl)c7)C6(C)C)cn5)CC4)CC3)c2)c2cc[nH]c2c1=O [Compound I-325] | < 500 | > 3000
 |  | < 500 | < 500 | Cn1cc(-c2cc(C(C)(C)O)ccc2Oc2ccc(CN3CC4(C3)CN(c3ncc(C(=O)N[C@H]5C(C)(C)[C@H](Oc6ccc(C#N)c(Cl)c6)C5(C)C)cn3)C4)cc2)c2cc[nH]c2c1=O [Compound I-327] | < 500 | < 500
 |  | > 3000 | < 500 | Cn1cc(-c2cc3c(cc2Oc2ccc(N4CC(CC5CN(c6ncc(C(=O)N[C@H]7C(C)(C)[C@H](Oc8ccc(C#N)c(Cl)c8)C7(C)C)cn6)C5)C4)cc2)CCC3(C)O)c2cc[nH]c2c1=O (some centres unmarked) [Compound I-329, N-[3-(3-chloro-4-cyano-phenoxy)-2,2,4,4-tetramethyl-cyclobutyl]-2-[3-[[1-[4-[1-hydroxy-1-methyl-6-(6-methyl-7-oxo-1H-pyrrolo[2,3-c]pyridin-4-yl)indan-5-yl]oxyphenyl]azetidin-3-yl]methyl]azetidin-1-yl]pyrimidine-5-carboxamide] | < 500 | > 3000
< 500 | < 500 |  |  | Cn1cc(-c2cc(C(C)(C)O)ccc2Oc2ccc(N3CC4(C3)CN(c3ncc(C(=O)N[C@H]5C(C)(C)[C@H](Oc6ccc(C#N)c(Cl)c6)C5(C)C)cn3)C4)cc2)c2cc[nH]c2c1=O [Compound I-330] | < 500 | < 500
 |  | < 500 | < 500 | Cn1cc(-c2cc(C(C)(C)O)ccc2Oc2ccc(N3CC(CC4CCN(c5ncc(C(=O)N[C@H]6C(C)(C)[C@H](Oc7ccc(C#N)c(Cl)c7)C6(C)C)cn5)CC4)C3)nc2)c2cc[nH]c2c1=O [Compound I-333, N-[3-(3-chloro-4-cyano-phenoxy)-2,2,4,4-tetramethyl-cyclobutyl]-2-[4-[[1-[5-[4-(1-hydroxy-1-methyl-ethyl)-2-(6-methyl-7-oxo-1H-pyrrolo[2,3-c]pyridin-4-yl)phenoxy]-2-pyridyl]azetidin-3-yl]methyl]-1-piperidyl]pyrimidine-5-carboxamide] | < 500 | > 3000
 |  | < 500 | < 500 | Cn1cc(-c2cc(C(C)(C)O)ccc2Oc2ccc(N3CC(CC4CCN(c5cnc(C(=O)N[C@H]6C(C)(C)[C@H](Oc7ccc(C#N)c(Cl)c7)C6(C)C)cn5)CC4)C3)nc2)c2cc[nH]c2c1=O [Compound I-334] | < 500 | > 3000
< 500 | 500 to 1500 |  |  | Cn1cc(-c2cc(C(C)(C)O)ccc2Oc2ccc(CCC3CCN(c4cnc(C(=O)N[C@H]5C(C)(C)[C@H](Oc6ccc(C#N)c(Cl)c6)C5(C)C)cn4)CC3)cc2)c2cc[nH]c2c1=O [Compound I-335] | > 3000 | > 3000
 |  | < 500 | > 3000 | Cn1cc(-c2cc(C(C)(C)O)ccc2Oc2ccc(N3CC(CC4CN(c5ccc(C(=O)N[C@H]6C(C)(C)[C@H](Oc7ccc(C#N)c(Cl)c7)C6(C)C)cc5)C4)C3)cc2)c2cc[nH]c2c1=O [Compound I-336] | < 500 | > 3000

Continued, molecule first:

SMILES | GI50 (T47D cells) [nM] | GI50 (VCaP cells) [nM] | GI50 (T47D cells; Homo sapiens) [nM] | GI50 (VCaP cells; Homo sapiens) [nM] | GI50 [1] [nM] | GI50 [2] [nM]
Cn1cc(-c2cc(C(C)(C)O)ccc2Oc2ccc(C(C)(C)N3CC4(CCN(c5ncc(C(=O)N[C@H]6C(C)(C)[C@H](Oc7ccc(C#N)c(Cl)c7)C6(C)C)cn5)CC4)C3)cc2)c2cc[nH]c2c1=O [Compound I-308] |  |  | > 3000 | < 500 | < 500 | 500 to 1500
Cn1cc(-c2cc(C(C)(C)O)ccc2O[C@H]2C[C@H](CC3CCN(c4ncc(C(=O)N[C@H]5C(C)(C)[C@H](Oc6ccc(C#N)c(Cl)c6)C5(C)C)cn4)CC3)C2)c2cc[nH]c2c1=O [Compound I-309, N-[3-(3-chloro-4-cyano-phenoxy)-2,2,4,4-tetramethyl-cyclobutyl]-2-[4-[[3-[4-(1-hydroxy-1-methyl-ethyl)-2-(6-methyl-7-oxo-1H-pyrrolo[2,3-c]pyridin-4-yl)phenoxy]cyclobutyl]methyl]-1-piperidyl]pyrimidine-5-carboxamide] |  |  | < 500 | < 500 | < 500 | 500 to 1500
Cn1cc(-c2cc(C(C)(C)O)ccc2O[C@H]2C[C@H](CCC3CCN(c4ncc(C(=O)N[C@H]5C(C)(C)[C@H](Oc6ccc(C#N)c(Cl)c6)C5(C)C)cn4)CC3)C2)c2cc[nH]c2c1=O [Compound I-310] | < 500 | < 500 |  |  | < 500 | < 500
Cn1cc(-c2cc(C(C)(C)O)ccc2Oc2ccc(C(C)(C)N3CC4(CN(c5ncc(C(=O)N[C@H]6C(C)(C)[C@H](Oc7ccc(C#N)c(Cl)c7)C6(C)C)cn5)CCO4)C3)cc2)c2cc[nH]c2c1=O [Compound I-312] | 500 to 1500 | < 500 |  |  | < 500 | 500 to 1500
Cn1cc(-c2cc(C(C)(C)O)ccc2Oc2cccc(OC3CCC4(CC3)CCN(c3ncc(C(=O)N[C@H]5C(C)(C)[C@H](Oc6ccc(C#N)c(Cl)c6)C5(C)C)cn3)CC4)c2)c2cc[nH]c2c1=O [Compound I-314] | 500 to 1500 | < 500 |  |  | < 500 | > 3000
Cn1cc(-c2cc(C(C)(C)O)ccc2Oc2ccc(CCOC3CCN(c4ncc(C(=O)N[C@H]5C(C)(C)[C@H](Oc6ccc(C#N)c(Cl)c6)C5(C)C)cn4)CC3)cn2)c2cc[nH]c2c1=O [Compound I-315] |  |  | 500 to 1500 | < 500 | < 500 | > 3000
Cn1cc(-c2cc(C(C)(C)O)ccc2Oc2cccc(CC3CCC4(CC3)CCN(c3ncc(C(=O)N[C@H]5C(C)(C)[C@H](Oc6ccc(C#N)c(Cl)c6)C5(C)C)cn3)CC4)c2)c2cc[nH]c2c1=O [Compound I-318] | < 500 | > 3000 |  |  | < 500 | > 3000
Cn1cc(-c2cc(C(C)(C)O)ccc2Oc2cccc(OC3CC4(C3)CN(c3ncc(C(=O)N[C@H]5C(C)(C)[C@H](Oc6ccc(C#N)c(Cl)c6)C5(C)C)cn3)C4)c2)c2cc[nH]c2c1=O [Compound I-320] | < 500 | < 500 |  |  | < 500 | < 500
Cn1cc(-c2cc(C(C)(C)O)ccc2Oc2cccc(CC3CC4(C3)CN(c3ncc(C(=O)N[C@H]5C(C)(C)[C@H](Oc6ccc(C#N)c(Cl)c6)C5(C)C)cn3)C4)c2)c2cc[nH]c2c1=O [Compound I-321] | < 500 | < 500 |  |  | < 500 | < 500
Cn1cc(-c2cc(C(C)(C)O)ccc2Oc2ccc(OC3CC4(C3)CC3(CCN(c5ncc(C(=O)N[C@H]6C(C)(C)[C@H](Oc7ccc(C#N)c(Cl)c7)C6(C)C)cn5)CC3)C4)cc2)c2cc[nH]c2c1=O [Compound I-326] |  |  | < 500 | < 500 | < 500 | > 3000
Cn1cc(-c2cc(C(C)(C)O)ccc2Oc2ccc(OC3CCN(C4CCN(c5ncc(C(=O)N[C@H]6C(C)(C)[C@H](Oc7ccc(C#N)c(Cl)c7)C6(C)C)cn5)CC4)CC3)cc2)c2cc[nH]c2c1=O [Compound I-328] |  |  | < 500 | < 500 | < 500 | < 500
Cn1cc(-c2cc(C(C)(C)O)ccc2Oc2ccc(C3CC(N4CC5(CN(c6ncc(C(=O)N[C@H]7C(C)(C)[C@H](Oc8ccc(C#N)c(Cl)c8)C7(C)C)cn6)C5)C4)C3)cc2)c2cc[nH]c2c1=O (some centres unmarked) [Compound I-331] | < 500 | < 500 |  |  | < 500 | < 500
